pIC50: −log10 of the molar value.
The molecules below were run against T1, protein-protein interaction between SOS1 and KRAS-G12D (Homo sapiens, UniProt Q07889) (assay: HTRF Based Protein-Protein Interaction Assay). Conditions: HTRF; GST-SOS1 2.5 nM, KRAS-G12D 100 nM, GDP 10 uM; read-out: IC50 value, inhibition of SOS1/KRAS-G12D protein-protein interaction.
T1 construct: The purified GST-SOS1 catalytic domain (residues 564-1049) was first diluted in assay buffer; made in house; host or cells: E. coli BL21 (DE3) for SOS1; E. coli BL21 carrying a BirA plasmid for KRAS-G12D
T1 sequence (Q07889 564-1049): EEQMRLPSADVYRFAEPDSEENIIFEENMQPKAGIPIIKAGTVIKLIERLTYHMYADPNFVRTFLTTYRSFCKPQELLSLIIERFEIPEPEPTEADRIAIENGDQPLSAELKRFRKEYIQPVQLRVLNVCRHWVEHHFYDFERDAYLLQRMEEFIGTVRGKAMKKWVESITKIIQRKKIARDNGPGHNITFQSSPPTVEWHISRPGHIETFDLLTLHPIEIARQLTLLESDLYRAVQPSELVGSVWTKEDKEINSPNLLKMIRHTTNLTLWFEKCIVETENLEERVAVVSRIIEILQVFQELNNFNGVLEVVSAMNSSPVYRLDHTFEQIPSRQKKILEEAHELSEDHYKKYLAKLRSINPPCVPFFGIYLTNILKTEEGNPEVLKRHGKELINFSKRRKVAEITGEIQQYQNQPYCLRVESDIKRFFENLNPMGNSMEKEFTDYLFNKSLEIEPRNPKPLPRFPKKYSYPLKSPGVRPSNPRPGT
Assay type: binding
Description: A KRAS-G12D and SOS1 binding/interaction assay was designed to measure the interaction between KRAS-G12D and SOS1 proteins. Utilizing HTRF (Homogeneous Time-Resolved Fluorescence) technology, the assay enabled simple and rapid characterization of compound and protein interaction in a high throughput format. This assay was used to examine potency of the compounds in inhibiting the protein-protein interaction between SOS1 and KRAS-G12D. […] Low IC50 values are indicative of high potency of the SOS1 inhibitor compound to disrupt SOS1 and Kras-G12D interaction.
Protein Expression and Purification. The corresponding gene sequence to human SOS1 (residues 564-1049, UniProt ID: Q07889; SEQ ID NO: 2) was synthesized and fused in frame with GST expression vector. After the desired sequence was confirmed, plasmid containing the sequence was transformed into the E. coli strain BL21 (DE3). Bacteria were growing at 37° C. in LB media containing 50 μg/ml Kanamycin to give OD600 of 0.6-0.8. Then 0.2 mM IPTG was added to induce protein expression for 16 hours at 17° C. Bacteria were harvested by centrifugation and stored at −80° C. Bacteria pellets were resuspended in lysis buffer (25 mM Tris-HCl, 500 mM NaCl, 2 mM DTT, 2.3% sucrose, 0.3% dextran-10, 1 mM PMSF, pH 7.5) and lysed using high-pressure homogenizer. The lysate was cleared by centrifugation for 30 minutes (12000 rpm at 4° C.). The supernatant containing GST-SOS1 fragment was purified sequentially through Glutathione column and gel filtration (Hiload 16/600 Superdex […] column, Cytiva). The purified GST-SOS1 fragment was confirmed by SDS-PAGE and stored in 25 mM Tris-HCl, 100 mM NaCl, 1 mM DTT, 2.3% sucrose, 0.3% dextran-10, pH 7.5 at −80° C.
Kras-G12D Protein Purification. The sequence corresponding to human KRAS-G12D (residues 1-169, UniProt P01116-2; SEQ ID NO: 1) was synthesized and fused in frame with His-AVI-TEV vector. The plasmid was transformed into the E. coli strain BL21 (containing a plasmid that can generate BirA enzyme). Bacteria were growing at 37° C. in TB media containing 100 μg/ml ampicillin and 50 μg/ml Kanamycin to give OD600 of 0.6-0.8. The 0.5 mM IPTG and 50 mg/l biotin were added to induce protein expression for 16 hours at 25° C. Bacteria were harvested by centrifugation and stored at −80° C. Bacteria pellets were re-suspended in lysis buffer (20 mM Tris-HCl, 500 mM NaCl, 5 mM MgCl2, 2 mM […], 5% glycerol, pH 8.0) and lysed using high-pressure homogenizer. The lysate was cleared by centrifugation for 30 minutes (12000 rpm at 4° C.). The supernatant containing HIS-AVI-TEV-KRAS-G12D fragment was purified sequentially through Ni-NTA column (SMART), Streptactin column (SMART), and gel filtration (Hiload 16/600 Superdex 75 pg, GE). The purified HIS-AVI-TEV-KRAS-G12D fragment was confirmed by SDS-PAGE and stored in 50 mM HEPES-NaOH, 100 mM NaCl, 1 mM DTT, 5 mM MgCl2, pH 7.5 at −80° C.
Protein-Protein Interaction Assay. An assay buffer containing 50 mM HEPES, pH 7.5, 50 mM NaCl, 0.01% Brij-35, 1 mM TCEP, 0.1% BSA was prepared, and concentration series of test compounds were generated spanning from 0.5 nM to 10 μM over 10 3-fold serial dilutions in a 384-well assay plate at a volume of 20 pL. The purified GST-SOS1 catalytic domain (residues 564-1049) was first diluted in assay buffer and 5 μl of SOS1 (final concentration 2.5 nM in assay mixture) was directly dispensed into compound plates. After a spin down at 1000 RPM for 30 seconds, the SOS1/compound mixture was incubated at 25° C. for 15 minutes to allow the reaction between SOS1 and the compound. A KRAS-G12D mixture was prepared by incubation of avi-tagged Kras-G12D (residue 1-169) and GDP in assay buffer containing 10 mM MgCl2 at room temperature for 10 minutes. A KRAS-G12D and GDP mixture (5 μL) was added to the assay plate (final KRAS-G12D was 100 nM and GDP was 10 uM). The plate was centrifuged at 1000 rpm for 30 sec and incubated at 25° C. for 60 minutes. […]
Molecule `C#C[C@@H](Nc1nc(C)nc2cc(=O)n(C3(C)CCOC3)cc12)c1cccc(C(F)F)c1C` (mixture of isomers) [Compound 13, 4-(((R)-1-(3-(difluoromethyl)-2-methylphenyl)prop-2-yn-1-yl)amino)-2-methyl-6-(3-methyltetrahydrofuran-3-yl)pyrido[4,3-d]pyrimidin-7(6H)-one] has a pIC50 greater than 7.00. With `C#C[C@@H](Nc1nc(C)nc2cc(=O)n(C3CC(F)(F)C3)cc12)c1cccc(C(F)F)c1F` [Compound 29, (R)-6-(3,3-difluorocyclobutyl)-4-((1-(3-(difluoromethyl)-2-fluorophenyl)prop-2-yn-1-yl)amino)-2-methylpyrido[4,3-d]pyrimidin-7(6H)-one] the pIC50 was greater than 7.00. Molecule `C#C[C@@H](Nc1nc(C)nc2cc(=O)n(C3(C#N)CC3)cc12)c1cccc(C(F)(F)F)c1C` [Compound 6, (R)-1-(2-methyl-4-((1-(2-methyl-3-(trifluoromethyl)phenyl)prop-2-yn-1-yl)amino)-7-oxopyrido[4,3-d]pyrimidin-6(7H)-yl)cyclopropane-1-carbonitrile] has a pIC50 greater than 7.00. `C#C[C@@H](Nc1nc(C)nc2cc(=O)n(C3(C(F)F)CC3)cc12)c1cccc(C#N)c1F` [Compound 42, (R)-3-(1-((6-(1-(difluoromethyl)cyclopropyl)-2-methyl-7-oxo-6,7-dihydropyrido[4,3-d]pyrimidin-4-yl)amino)prop-2-yn-1-yl)-2-fluorobenzonitrile] showed a pIC50 greater than 7.00. For `C#C[C@@H](Nc1ncnc2c1cc(C1(F)CCN(C(C)=O)CC1)c(=O)n2C)c1cccc(C(F)F)c1F` [Compound 47, 6-(1-acetyl-4-fluoropiperidin-4-yl)-4-{[(1R)-1-[3-(difluoromethyl)-2-fluorophenyl]prop-2-yn-1-yl]amino}-8-methyl-7H,8H-pyrido[2,3-d]pyrimidin-7-one], the pIC50 was greater than 7.00. In the case of `C#C[C@@H](Nc1nc(C)nc2cc(=O)n(N[C@H]3CCOC3)cc12)c1cccc(C(F)F)c1C` [Compound 16, 4-(((R)-1-(3-(difluoromethyl)-2-methylphenyl)prop-2-yn-1-yl)amino)-2-methyl-6-(((S)-tetrahydrofuran-3-yl)amino)pyrido[4,3-d]pyrimidin-7(6H)-one], the pIC50 was 6.70 to 7.00. For `C#C[C@@H](Nc1nc(C)nc2cc(=O)n(C3CCC3)cc12)c1cccc(C(F)(F)F)c1C` [Compound 3, (R)-6-cyclobutyl-2-methyl-4-((1-(2-methyl-3-(trifluoromethyl)phenyl)prop-2-yn-1-yl)amino)pyrido[4,3-d]pyrimidin-7(6H)-one], the pIC50 was greater than 7.00. In the case of `C#C[C@@H](Nc1nc(C)nc2cc(=O)n(C3(CF)CC3)cc12)c1cccc(C(F)F)c1F` [Compound 32, (R)-4-((1-(3-(difluoromethyl)-2-fluorophenyl)prop-2-yn-1-yl)amino)-6-(1-(fluoromethyl)cyclopropyl)-2-methylpyrido[4,3-d]pyrimidin-7(6H)-one], the pIC50 was greater than 7.00. With `C#C[C@@H](Nc1nc(C)nc2cc(=O)n(C3CC4(C3)CN(C)C4)cc12)c1cccc(C(F)F)c1C` [Compound 38, (R)-4-((1-(3-(difluoromethyl)-2-methylphenyl)prop-2-yn-1-yl)amino)-2-methyl-6-(2-methyl-2-azaspiro[3.3]heptan-6-yl)pyrido[4,3-d]pyrimidin-7(6H)-one] the pIC50 was greater than 7.00. Work on `C#C[C@@H](Nc1nc(C)nc2cc(=O)n(C3(C)CC3)cc12)c1cccc(C(C)(F)F)c1F` [Compound 19, (R)-4-((1-(3-(1,1-difluoroethyl)-2-fluorophenyl)prop-2-yn-1-yl)amino)-2-methyl-6-(1-methylcyclopropyl)pyrido[4,3-d]pyrimidin-7(6H)-one] yielded a pIC50 greater than 7.00. Work on `C#C[C@@H](Nc1nc(C)nc2cc(=O)n(C3(C4CCOC4)CC3)cc12)c1cccc(C(F)(F)F)c1C` (stereo partly drawn) [Compound 34, 2-methyl-4-(((R)-1-(2-methyl-3-(trifluoromethyl)phenyl)prop-2-yn-1-yl)amino)-6-(1-(tetrahydrofuran-3-yl)cyclopropyl)pyrido[4,3-d]pyrimidin-7(6H)-one] yielded a pIC50 greater than 7.00. In the case of `C#C[C@@H](Nc1nc(C)nc2c(F)c(=O)n(C3(C(F)F)CC3)cc12)c1cccc(C(F)F)c1F` [Compound 27, (R)-4-((1-(3-(difluoromethyl)-2-fluorophenyl)prop-2-yn-1-yl)amino)-6-(1-(difluoromethyl)cyclopropyl)-8-fluoro-2-methylpyrido[4,3-d]pyrimidin-7(6H)-one], the pIC50 was greater than 7.00. `C#C[C@@H](Nc1nc(C)nc2c(F)c(=O)n(C3(C(F)F)CC3)cc12)c1cccc(C(F)(F)F)c1C` [Compound 14, (R)-6-(1-(difluoromethyl)cyclopropyl)-8-fluoro-2-methyl-4-((1-(2-methyl-3-(trifluoromethyl)phenyl)prop-2-yn-1-yl)amino)pyrido[4,3-d]pyrimidin-7(6H)-one] gave a pIC50 greater than 7.00. Work on `C#C[C@@H](Nc1nc(C)nc2cc(=O)n(C3(C)CCOC3)cc12)c1cccc(C(F)(F)F)c1C` (stereo partly drawn) [Compound 7, 2-methyl-4-(((R)-1-(2-methyl-3-(trifluoromethyl)phenyl)prop-2-yn-1-yl)amino)-6-(3-methyltetrahydrofuran-3-yl)pyrido[4,3-d]pyrimidin-7(6H)-one] yielded a pIC50 greater than 7.00.

Reference: patent publication US20220324862A1, “PYRIDOPYRIMIDINONE COMPOUNDS” (Acerand Therapeutics (USA) Limited, priority 2021, published 2022)
